Data from patent publication US20060089407A1, “Methods for Making and Using Synergistic Multifunctional Compositions” (NATIONAL RESEARCH LABORATORIES, LTD., priority 2004, published 2006).

Legend:
viruses = settings: cited from earlier work
normal cells = settings: cited from earlier work

Structure (SMILES) | anti-inflammatory performance (inflammatory processes) | anti-viral activity (viruses) | toxicity to normal cells (normal cells)
O=C([O-])CC([O-])(CC(=O)[O-])C(=O)[O-].[Cu+2].[Na+].[Na+] [MCC, disodium monocopper (II) citrate dihydrate] | demonstrated utility on relieving inflammatory processes | – | –
CC(=O)[O-].CC(=O)[O-].[Zn+2] [zinc acetate] | – | very toxic to viruses | quite toxic to normal cells
